{"source": "patent US9763957B2", "about": "“Autotaxin inhibitors” (Novartis AG, priority 2013, dated 2017)", "data": [{"molecular_target": "Recombinant human ATX (Homo sapiens (Human), UniProt Q13822)", "experiment": "ATX inhibition assay (choline release, Amplex Red fluorescence)", "type": "biochemical", "settings": "ATX 10 nM, LPC 18:1 10 μM, 37° C., 20 min pre-incubation; mean of n≧2", "method_in_brief": "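Activity was taken from the slope of resorufin fluorescence (530/590 nm, read every 2 min for 40 min at 37 °C) produced by choline liberated from 10 μM oleoyl LPC.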", "units": {"IC50": "nM"}, "values": [{"smiles": "Cc1nnn(Cc2cc(C(F)(F)F)ccc2/C=C/C(=O)N2CCC(C(=O)O)CC2)n1", "note": "[Example 51, (E)-1-(3-(2-((5-Methyl-2H-tetrazol-2-yl)methyl)-4-(trifluoromethyl)phenyl)acryloyl)piperidine-4-carboxylic acid]", "IC50": 77}, {"smiles": "Cc1nnn(Cc2cccc(Cl)c2/C=C/C(=O)N2CCC(Cc3nnc(C)o3)CC2)n1", "note": "[Example 46, (E)-3-(2-Chloro-6-((5-methyl-2H-tetrazol-2-yl)methyl)phenyl)-1-(4-((5-methyl-1,3,4-oxadiazol-2-yl)methyl)piperidin-1-yl)prop-2-en-1-one]", "IC50": 204}, {"smiles": "Cc1nnn(Cc2cc(Cl)ccc2/C=C/C(=O)N2CCN(Cc3cnc(N4CCOCC4)nc3)CC2)n1", "note": "[Example 140.8, (E)-3-(4-Chloro-2-((5-methyl-2H-tetrazol-2-yl)methyl)phenyl)-1-(4-((2-morpholinopyrimidin-5-yl)methyl)piperazin-1-yl)prop-2-en-1-one]", "IC50": 8.8}, {"smiles": "Cc1nnn(Cc2cc(C(F)(F)F)ccc2/C=C/C(=O)N2CCC[C@H]2CO)n1", "note": "[Example 133, (S,E)-1-(2-(Hydroxymethyl)pyrrolidin-1-yl)-3-(2-((5-methyl-2H-tetrazol-2-yl)methyl)-4-(trifluoromethyl)phenyl)prop-2-en-1-one]", "IC50": 81}, {"smiles": "Cc1nnn(Cc2cc(Cl)ccc2/C=C/C(=O)N2CCC(OCC(=O)N3CCCCC3)CC2)n1", "note": "[Example 49.10, (E)-3-(4-Chloro-2-((5-methyl-2H-tetrazol-2-yl)methyl)phenyl)-1-(4-(2-oxo-2-(piperidin-1-yl)ethoxy)piperidin-1-yl)prop-2-en-1-one]", "IC50": 24}, {"smiles": "Cc1nnn(Cc2cc(C(F)(F)F)ccc2/C=C/C(=O)N2CCN(Cc3cnn(C)c3)CC2)n1", "note": "[Example 53, (E)-1-(4-((1-Methyl-1H-pyrazol-4-yl)methyl)piperazin-1-yl)-3-(2-((5-methyl-2H-tetrazol-2-yl)methyl)-4-(trifluoromethyl)phenyl)prop-2-en-1-one]", "IC50": 2}, {"smiles": "Cc1nnn(Cc2cc(C(F)(F)F)ccc2/C=C/C(=O)N2CCC(c3nnc(C4CC4)o3)CC2)n1", "note": "[Example 86, (E)-1-(4-(5-Cyclopropyl-1,3,4-oxadiazol-2-yl)piperidin-1-yl)-3-(2-((5-methyl-2H-tetrazol-2-yl)methyl)-4-(trifluoromethyl)phenyl)prop-2-en-1-one]", "IC50": 4.8}, {"smiles": "Cc1nnn(Cc2cc(Cl)ccc2/C=C/C(=O)N2CCN(Cc3cnn(C)c3)CC2)n1", "note": "[Example 140.9, (E)-3-(4-Chloro-2-((5-methyl-2H-tetrazol-2-yl)methyl)phenyl)-1-(4-((1-methyl-1H-pyrazol-4-yl)methyl)piperazin-1-yl)prop-2-en-1-one]", "IC50": 34}, {"smiles": "C/C(=C\\C(=O)N1CCC(c2nnc(C)o2)CC1)c1ccc(Cl)cc1Cn1nnc(C)n1", "note": "[Example 39, (E)-3-(4-Chloro-2-((5-methyl-2H-tetrazol-2-yl)methyl)phenyl)-1-(4-(5-methyl-1,3,4-oxadiazol-2-yl)piperidin-1-yl)but-2-en-1-one]", "IC50": 75}, {"smiles": "Cc1cnn(Cc2cc(Cl)ccc2/C=C/C(=O)N2CCC(Cc3nnc(C)o3)CC2)n1", "note": "[Example 80, (E)-3-(4-Chloro-2-((4-methyl-2H-1,2,3-triazol-2-yl)methyl)phenyl)-1-(4-((5-methyl-1,3,4-oxadiazol-2-yl)methyl)piperidin-1-yl)prop-2-en-1-one]", "IC50": 454}, {"smiles": "Cc1nnn(Cc2cc(C(F)(F)F)ccc2/C=C/C(=O)N2CCN(C(=O)OC(C)(C)C)CC2)n1", "note": "[Example 68, (E)-tert-Butyl-4-(3-(2-((5-methyl-2H-tetrazol-2-yl)methyl)-4-(trifluoromethyl)phenyl)acryloyl)piperazine-1-carboxylate]", "IC50": 4.5}, {"smiles": "Cc1nnc(Cc2cc(Cl)ccc2/C=C/C(=O)N2CCC(Cc3nnc(C)o3)CC2)o1", "note": "[Example 13, (E)-3-(4-Chloro-2-((5-methyl-1,3,4-oxadiazol-2-yl)methyl)phenyl)-1-(4-((5-methyl-1,3,4-oxadiazol-2-yl)methyl)piperidin-1-yl)prop-2-en-1-one]", "IC50": 2360}]}]}
